Assay results: paper PMC7413254 (Nature Communications, 2020)
Where two headings read alike, the source gives them in different places.

Tests used:
PfCRT^Ecu1110 = PfCRT^Ecu1110 (Plasmodium falciparum, UniProt Q9N623, A220S/I356L/K76T/N326D); assay: [3H]CQ uptake into Xenopus oocytes, cis-inhibition by unlabelled solute; format: cell-based
Procedure, shortened: (§1)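 Washed oocytes (ten per treatment) were exposed to label in pH 5.5 ND96 for 1.5 h at 27.5 °C. Buffer was then removed, cells rinsed in ice-cold ND96, lysed in SDS and counted.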

PfCRT^Dd2 = PfCRT^Dd2 (Plasmodium falciparum, UniProt Q9N623, A220S/I356T/K76T/M74I/N326S/N75E/Q271E/R371I); assay: as above; format: cell-based
Chain of PfCRT^Dd2 (Q9N623 whole entry A220S/I356T/K76T/M74I/N326S/N75E/Q271E/R371I): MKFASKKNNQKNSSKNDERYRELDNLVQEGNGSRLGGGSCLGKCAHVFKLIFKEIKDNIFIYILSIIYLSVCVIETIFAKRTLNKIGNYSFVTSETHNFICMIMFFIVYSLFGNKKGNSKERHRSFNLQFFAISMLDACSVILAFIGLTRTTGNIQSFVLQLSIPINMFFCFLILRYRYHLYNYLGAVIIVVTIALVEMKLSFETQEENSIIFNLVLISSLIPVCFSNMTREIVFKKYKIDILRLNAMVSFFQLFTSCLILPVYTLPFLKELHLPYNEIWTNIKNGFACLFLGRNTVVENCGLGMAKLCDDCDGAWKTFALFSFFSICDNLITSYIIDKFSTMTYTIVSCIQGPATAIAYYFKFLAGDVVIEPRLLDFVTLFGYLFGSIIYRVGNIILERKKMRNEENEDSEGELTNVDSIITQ
Procedure, shortened: as §1

PfCRT [1] = assay: Influx of VF-6 via PfCRT into the oocyte, solutes tested as potential co-substrates; format: cell-based, Plasmodium falciparum; design: key: X: Compounds that have been tested as potential co-substrates but are not required for influx of VF-6 via PfCRT into the oocyte; conditions: X marks the solute
non-expressing oocytes = format: cell-based, Xenopus laevis; conditions: total [3H]CQ transport; for Uptake of [3H]CQ (% non-expressing oocyte control), trans-stimulation: non-expressing oocytes, normalised to the oocyte type control; for Uptake of [3H]CQ (% PfCRTDd2 control), trans-stimulation, non-expressing oocytes: mean ± SEM, SEM
Procedure, shortened: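 Oocytes (ten per treatment, ≥4 independent frogs/days) were preloaded by injecting VF-6 in 25 nL ND96 at pH 5.0, 5.5, 6.0 or 7.0, or Na^+-free choline buffer, then uptake run 1.5 h, 27.5 °C, ND96 pH 5.5 by default. Internal concentrations assumed ~400 nL oocyte volume.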

PfCRT^3D7 = PfCRT^3D7 (Plasmodium falciparum, UniProt Q8IBZ9); assay: cell-based; format: cell-based; conditions: total [3H]CQ transport; for inhibition at 500 µM: [test solute] = 0.5 mM; for inhibition at 1000 µM: [test solute] = 1 mM; for inhibition at 2000 µM: [test solute] = 2 mM
Chain of PfCRT^3D7 (Q8IBZ9 59-398): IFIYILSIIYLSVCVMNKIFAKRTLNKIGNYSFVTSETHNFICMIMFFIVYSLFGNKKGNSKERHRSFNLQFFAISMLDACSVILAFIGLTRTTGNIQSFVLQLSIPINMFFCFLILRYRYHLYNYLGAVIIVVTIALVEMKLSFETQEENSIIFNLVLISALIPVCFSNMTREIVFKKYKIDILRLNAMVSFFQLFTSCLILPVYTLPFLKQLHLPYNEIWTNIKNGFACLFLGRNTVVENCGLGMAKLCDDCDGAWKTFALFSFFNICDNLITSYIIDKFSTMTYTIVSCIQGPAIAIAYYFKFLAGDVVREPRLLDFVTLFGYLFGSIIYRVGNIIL
Procedure, shortened: as §1

PfCRT [2] = assay: Potential co-substrates tested for influx of VF-6 via PfCRT into the oocyte; format: cell-based, Plasmodium falciparum; design: key: X: Compounds that have been tested as potential co-substrates but are not required for influx of VF-6 via PfCRT into the oocyte
[3] = read-out: Uptake of [3H]CQ (% PfCRTDd2 control), cis-inhibition, PfCRTEcu1110, SEM
[4] = read-out: Uptake of [3H]CQ (% PfCRTEcu1110 control), cis-inhibition
[5] = read-out: [3H]CQ transport (% PfCRTEcu1110 control), cis-inhibition, PfCRTEcu1110, SEM
[6] = read-out: PfCRT-mediated [3H]CQ transport, cis-inhibition (% PfCRTDd2 control)
[7] = read-out: Uptake of [3H]CQ (% PfCRTDd2 control), cis-inhibition
[8] = read-out: Uptake of [3H]CQ (% PfCRTDd2 control), cis-inhibition, PfCRTDd2, SEM
[9] = read-out: [3H]CQ transport (% PfCRTDd2 control), cis-inhibition, PfCRTDd2, SEM
[10] = PfCRT3D7 oocytes, normalised to the oocyte type control, read-out: Uptake of [3H]CQ (% PfCRT3D7 control), cis-inhibition
[11] = mean ± SEM, SEM, read-out: Uptake of [3H]CQ (% PfCRTDd2 control), cis-inhibition, PfCRT3D7

Chain of PfCRT^Ecu1110 (Q9N623 whole entry A220S/I356L/K76T/N326D): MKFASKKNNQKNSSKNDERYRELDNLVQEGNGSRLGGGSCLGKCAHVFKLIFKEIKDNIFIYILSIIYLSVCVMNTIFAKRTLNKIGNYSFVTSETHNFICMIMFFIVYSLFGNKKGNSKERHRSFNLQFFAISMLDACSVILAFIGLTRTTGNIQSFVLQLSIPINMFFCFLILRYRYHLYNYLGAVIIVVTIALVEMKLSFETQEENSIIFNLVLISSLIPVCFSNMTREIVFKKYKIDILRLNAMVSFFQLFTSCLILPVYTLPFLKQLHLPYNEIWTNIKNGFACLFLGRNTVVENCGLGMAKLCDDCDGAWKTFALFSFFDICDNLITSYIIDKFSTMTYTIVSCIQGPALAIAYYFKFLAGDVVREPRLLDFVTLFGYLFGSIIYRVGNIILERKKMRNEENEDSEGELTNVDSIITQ

Work on `N[C@@H](Cc1c[nH]c2ccccc12)C(=O)O` [L-tryptophan] yielded an inhibition at 500 µM (PfCRT^Ecu1110; [3]) of 32 ± 1.6%, an inhibition at 1000 µM (PfCRT^Ecu1110; [3]) of 32 ± 0.6% and an inhibition at 2000 µM (PfCRT^Ecu1110; [3]) of 33 ± 1.4%. The inhibition at 500 µM (PfCRT^Ecu1110; [4]) was 98 ± 2.5%, the inhibition at 1000 µM (PfCRT^Ecu1110; [4]) was 97 ± 2.7% and the inhibition at 2000 µM (PfCRT^Ecu1110; [4]) was 101 ± 3.1%. For the same molecule, the inhibition at 500 µM (PfCRT^Ecu1110; [5]) was 29 ± 1.3%, the inhibition at 1000 µM (PfCRT^Ecu1110; [5]) was 29 ± 0.3% and the inhibition at 2000 µM (PfCRT^Ecu1110; [5]) was 30 ± 1.4%. It also gave an inhibition at 500 µM (PfCRT^Dd2; [6]) of 94 ± 4.6%, an inhibition at 1000 µM (PfCRT^Dd2; [6]) of 95 ± 1.9% and an inhibition at 2000 µM (PfCRT^Dd2; [6]) of 95 ± 1.9%. For the same molecule, the inhibition at 1000 µM (PfCRT^Dd2; [7]) was 97 ± 2.6%, the inhibition at 2000 µM (PfCRT^Dd2; [7]) was 97 ± 2.5% and the inhibition at 500 µM (PfCRT^Dd2; [8]) was 96 ± 2.1%. It also gave an inhibition at 1000 µM (PfCRT^Dd2; [8]) of 97 ± 2.6%, an inhibition at 2000 µM (PfCRT^Dd2; [8]) of 97 ± 2.5% and an inhibition at 1000 µM (PfCRT^Dd2; [9]) of 95 ± 1.9%. For the same molecule, the inhibition at 2000 µM (PfCRT^Dd2; [9]) was 95 ± 1.9%, the “Compounds that have been tested as potential co-substrates but are not required for influx of VF-6 via PfCRT into the oocyte” value (PfCRT [1]) was “X” and the “Uptake of [3H]CQ (% non-expressing oocyte control), trans-stimulation” value (non-expressing oocytes; [test solute]i = 5 mM) was 98 ± 2.5 % non-expressing oocyte control. For the same molecule, the “Uptake of [3H]CQ (% non-expressing oocyte control), trans-stimulation” value (non-expressing oocytes; [test solute]i = 45 mM (30 mM for some solutes due to solubility)) was 99 ± 2.1 % non-expressing oocyte control, the “Uptake of [3H]CQ (% PfCRTDd2 control), trans-stimulation, non-expressing oocytes” value (non-expressing oocytes; [test solute]i = 5 mM (intracellular)) was 3.0 ± 0.04 % PfCRTDd2 control and the “Uptake of [3H]CQ (% PfCRTDd2 control), trans-stimulation, non-expressing oocytes” value (non-expressing oocytes; [test solute]i = 45 mM (intracellular; 30 mM for some solutes due to solubility)) was 3.2 ± 0.01 % PfCRTDd2 control. The inhibition at 500 µM (PfCRT^3D7; [10]) was 100 ± 3.2%, the inhibition at 1000 µM (PfCRT^3D7; [10]) was 99 ± 4.6% and the inhibition at 2000 µM (PfCRT^3D7; [10]) was 100 ± 3.6%. The inhibition at 500 µM (PfCRT^3D7; [11]) was 2.7 ± 0.03%, the inhibition at 1000 µM (PfCRT^3D7; [11]) was 2.5 ± 0.04% and the inhibition at 2000 µM (PfCRT^3D7; [11]) was 2.7 ± 0.04%. The “Tested as potential co-substrate but not required for influx of VF-6 via PfCRT into the oocyte” value (PfCRT [2]) was “X”.
